Reference: patent publication US8729273B2, “Compounds effective as xanthine oxidase inhibitors, method for preparing the same, and pharmaceutical composition containing the same” (LG Life Sciences Ltd., priority 2009, dated 2014)
pIC50: −log10 of the molar value.

The compounds below were run on plasma uric acid (assay: In vivo xanthine oxidase assay: plasma uric acid-lowering activity in oxonic acid-induced high-uric acid model). Conditions: male SD rats, potassium oxonate 300 mg/kg i.p., compound 10 mg/kg oral, plasma at 1 h after oral administration; normal group = 100% inhibition, control group = 0%.
Set-up: species or system rat
Description: Uric Acid-Lowering Activity in Plasma and Liver (Oxonic Acid-Induced High-Uric Acid Model in Rat)
In order to estimate the plasma uric acid-lowering ability of the compounds according to the present invention, experiments were carried out using oxonic acid-induced high-uric acid model.
300 mg/kg of potassium oxonate suspended in 0.8% carboxymethylcellulose solution was intraperitoneally administered to male SD rats of body weight 200 g (control group, compound administration group). 1 h after the oxonic acid administration, 10 mg/kg of test compounds dissolved in polyethyleneglycol 400:ethanol (2:1) solution were orally administered (compound administration group), and after the time period of 1 h blood was sampled. Plasma was separated from thus-obtained blood, and the uric acid concentration in the plasma was quantified utilizing LC-MS/MS. FIGS. 1 and 2 represent the results of plasma uric acid concentration and inhibition rate of plasma uric acid, respectively.
Through the present experiment, excellent plasma uric acid-lowering activity of the compounds according to the present invention was verified.

| Compound | uric acid inhibition rate [%] |
| --- | --- |
| CC(C)n1cc(C#N)c2cc(-n3cc(C(=O)O)cn3)ccc21 [Example 1, 1-(3-cyano-1-isopropyl-indol-5-yl)pyrazole-4-carboxylic acid] | 60 |

Each compound was assayed against Xanthine oxidase originated from bovine milk (Bos taurus (Bovine), UniProt P80457) (assay: Xanthine oxidase inhibition activity (initial velocity of uric acid formation)). Conditions: 3 min incubation with test compound, substrate xanthine.
Sequence of Xanthine oxidase originated from bovine milk (P80457 whole entry): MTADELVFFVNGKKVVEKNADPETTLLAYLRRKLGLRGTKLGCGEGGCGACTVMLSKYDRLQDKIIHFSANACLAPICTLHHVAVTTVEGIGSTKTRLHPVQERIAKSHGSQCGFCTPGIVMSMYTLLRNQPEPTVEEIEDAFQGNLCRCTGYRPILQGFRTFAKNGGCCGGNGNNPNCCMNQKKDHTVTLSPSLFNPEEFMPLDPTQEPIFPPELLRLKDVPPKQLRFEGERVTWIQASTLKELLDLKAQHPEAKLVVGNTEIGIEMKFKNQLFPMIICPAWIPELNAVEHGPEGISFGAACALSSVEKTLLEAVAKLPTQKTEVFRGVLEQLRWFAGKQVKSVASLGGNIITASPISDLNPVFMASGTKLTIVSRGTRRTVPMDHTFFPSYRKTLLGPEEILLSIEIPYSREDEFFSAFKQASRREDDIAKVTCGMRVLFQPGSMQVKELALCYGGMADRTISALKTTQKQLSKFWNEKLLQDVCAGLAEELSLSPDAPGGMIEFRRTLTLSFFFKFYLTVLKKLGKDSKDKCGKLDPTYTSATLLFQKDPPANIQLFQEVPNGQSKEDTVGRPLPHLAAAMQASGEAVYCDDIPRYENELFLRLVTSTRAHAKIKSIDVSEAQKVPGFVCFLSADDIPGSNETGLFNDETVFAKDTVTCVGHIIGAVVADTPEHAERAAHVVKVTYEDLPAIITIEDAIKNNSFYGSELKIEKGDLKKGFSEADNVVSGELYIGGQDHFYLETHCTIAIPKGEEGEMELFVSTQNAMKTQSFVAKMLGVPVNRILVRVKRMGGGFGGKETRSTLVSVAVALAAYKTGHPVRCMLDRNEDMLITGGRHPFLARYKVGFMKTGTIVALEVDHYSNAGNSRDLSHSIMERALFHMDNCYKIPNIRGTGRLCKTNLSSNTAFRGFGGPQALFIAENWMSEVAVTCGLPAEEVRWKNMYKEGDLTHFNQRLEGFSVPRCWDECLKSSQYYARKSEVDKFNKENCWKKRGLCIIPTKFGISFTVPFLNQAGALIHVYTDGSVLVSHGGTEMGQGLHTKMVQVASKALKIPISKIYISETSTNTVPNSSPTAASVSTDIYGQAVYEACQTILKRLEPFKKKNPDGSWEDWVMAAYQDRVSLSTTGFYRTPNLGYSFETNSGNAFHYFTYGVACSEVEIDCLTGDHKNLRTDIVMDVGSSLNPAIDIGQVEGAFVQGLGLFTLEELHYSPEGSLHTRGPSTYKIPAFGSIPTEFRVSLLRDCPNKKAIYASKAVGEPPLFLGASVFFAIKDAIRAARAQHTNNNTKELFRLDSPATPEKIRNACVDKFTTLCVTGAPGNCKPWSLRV
Format: biochemical
Description: Xanthine oxidase originated from bovine milk was incubated for 3 min with test compounds, and the initial velocity of uric acid formation was determined by adding the substrate xanthine. The initial velocity of test compound at each concentration was converted to % inhibition rate on the basis of the initial velocity under the absence of the inhibitor, thereby the inhibitor concentration needed for 50% inhibition was calculated as IC50 values. According to the present invention, compounds which show IC50 values against xanthine oxidase from bovine milk in the level of nM were developed.

| pIC50 | Compound |
| --- | --- |
| 8.47 | CC(C)n1cc(C#N)c2cc(-n3cc(C(=O)O)cn3)ccc21 [Example 1, 1-(3-cyano-1-isopropyl-indol-5-yl)pyrazole-4-carboxylic acid] |
| 8.55 | N#Cc1cn(CC2CC2)c2ccc(-n3cc(C(=O)O)cn3)cc12 [Example 2, 1-[3-cyano-1-(cyclopropylmethyl)indol-5-yl]pyrazole-4-carboxylic acid] |
| 8.22 | N#Cc1cn(C2CC2)c2ccc(-n3cc(C(=O)O)cn3)cc12 [Example 3, 1-[3-cyano-1-cyclopropyl-indol-5-yl]pyrazole-4-carboxylic acid] |
| 8.35 | CC(C)Cn1cc(C#N)c2cc(-n3cc(C(=O)O)cn3)ccc21 [Example 4, 1-(3-cyano-1-isobutyl-indol-5-yl)pyrazole-4-carboxylic acid] |
| 8.30 | CC(C)(C)Cn1cc(C#N)c2cc(-n3cc(C(=O)O)cn3)ccc21 [Example 5, 1-[3-cyano-1-(2,2-dimethylpropyl)indol-5-yl]pyrazole-4-carboxylic acid] |
| 8.42 | COCCn1cc(C#N)c2cc(-n3cc(C(=O)O)cn3)ccc21 [Example 6, 1-[3-cyano-1-(2-methoxyethyl)indol-5-yl]pyrazole-4-carboxylic acid] |
| 8.17 | CCC(C)n1cc(C#N)c2cc(-n3cc(C(=O)O)cn3)ccc21 (centres unmarked) [Example 7, 1-(3-cyano-1-sec-butyl-indol-5-yl)-pyrazole-4-carboxylic acid] |
| 8.16 | N#Cc1cn(C2CCC2)c2ccc(-n3cc(C(=O)O)cn3)cc12 [Example 8, 1-[3-cyano-1-cyclobutyl-indol-5-yl]pyrazole-4-carboxylic acid] |
| 8.34 | N#Cc1cn(C2CCCC2)c2ccc(-n3cc(C(=O)O)cn3)cc12 [Example 9, 1-(3-cyano-1-cyclopentyl-indol-5-yl)-pyrazole-4-carboxylic acid] |
| 8.28 | CC(CF)n1cc(C#N)c2cc(-n3cc(C(=O)O)cn3)ccc21 (centres unmarked) [Example 10, 1-[3-cyano-1-(1-fluoropropan-2-yl)-indol-5-yl]-pyrazole-4-carboxylic acid] |
| 8.27 | N#Cc1cn(C2CCOC2)c2ccc(-n3cc(C(=O)O)cn3)cc12 (centres unmarked) [Example 11, 1-[3-cyano-1-(tetrahydrofuran-3-yl)-indol-5-yl]-pyrazole-4-carboxylic acid] |
| 7.94 | Cc1nn(-c2ccc3c(c2)c(C#N)cn3C(C)C)cc1C(=O)O [Example 12, 1-[3-cyano-1-isopropyl-indol-5-yl]-3-methyl-pyrazole-4-carboxylic acid] |
| 8.32 | Cc1nn(-c2ccc3c(c2)c(C#N)cn3CC2CC2)cc1C(=O)O [Example 13, 1-[3-cyano-1-(cyclopropylmethyl)indol-5-yl]-3-methyl-pyrazole-4-carboxylic acid] |
| 7.92 | COCCn1cc(C#N)c2cc(-n3cc(C(=O)O)c(C)n3)ccc21 [Example 14, 1-[3-cyano-1-(2-methoxyethyl)indol-5-yl]-3-methyl-pyrazole-4-carboxylic acid] |
| 4.53 | CC(C)n1cc(C#N)c2cc(-n3cc(C(=O)O)c(C(F)(F)F)n3)ccc21 [Example 15, 1-[3-cyano-1-isopropyl-indol-5-yl]-3-(trifluoromethyl)pyrazole-4-carboxylic acid] |
| 4.67 | N#Cc1cn(CC2CC2)c2ccc(-n3cc(C(=O)O)c(C(F)(F)F)n3)cc12 [Example 16, 1-[3-cyano-1-(cyclopropylmethyl)indol-5-yl]-3-(trifluoromethyl)pyrazole-4-carboxylic acid] |

| pIC50 | Compound |
| --- | --- |
| 8.34 | CC(C)n1cc([N+](=O)[O-])c2cc(-n3cc(C(=O)O)cn3)ccc21 [Example 17, 1-(1-isopropyl-3-nitro-indol-5-yl)pyrazole-4-carboxylic acid] |
| 7.89 | CC(C)n1cc(C#N)c2cc(-n3cnc(C(=O)O)n3)ccc21 [Example 18, 1-(3-cyano-1-isopropyl-indol-5-yl)-1,2,4-triazole-3-carboxylic acid] |
| 7.62 | CC(C)n1cc(C#N)c2cc(-n3cnc(C(=O)O)c3)ccc21 [Example 19, 1-(3-cyano-1-isopropyl-indol-5-yl)imidazole-4-carboxylic acid] |
| 8.33 | CC(C)n1cc(C#N)c2cc(-c3ccc(C(=O)O)s3)ccc21 [Example 20, 5-(3-cyano-1-isopropyl-indol-5-yl)-thiophene-2-carboxylic acid] |
| 8.21 | CC(C)n1cc(C#N)c2cc(-c3cc(C(=O)O)ccn3)ccc21 [Example 21, 2-(3-cyano-1-isopropyl-indol-5-yl)isonicotinic acid] |
| 8.68 | N#Cc1cn(CC2CC2)c2ccc(-c3cc(C(=O)O)ccn3)cc12 [Example 22, 2-[3-cyano-1-(cyclopropylmethyl)-indol-5-yl]isonicotinic acid] |
| 8.00 | N#Cc1cn(C2CCOC2)c2ccc(-c3cc(C(=O)O)ccn3)cc12 (centres unmarked) [Example 23, 2-[3-cyano-1-(tetrahydrofuran-3-yl)-indol-5-yl]isonicotinic acid] |
| 8.21 | CC(CF)n1cc(C#N)c2cc(-c3cc(C(=O)O)ccn3)ccc21 (centres unmarked) [Example 24, 2-[3-cyano-1-(1-fluoropropan-2-yl)-indol-5-yl]isonicotinic acid] |
| 8.07 | COCCn1cc(C#N)c2cc(-c3cc(C(=O)O)ccn3)ccc21 [Example 25, 2-[3-cyano-1-(2-methoxyethyl)-indol-5-yl]isonicotinic acid] |
| 5.40 | Cc1cc(C(=O)O)cc(-c2ccc3c(c2)c(C#N)cn3C(C)C)n1 [Example 26, 2-(3-cyano-1-isopropyl-indol-5-yl)-6-methylisonicotinic acid] |
| 7.96 | CC(C)n1cc([N+](=O)[O-])c2cc(-c3cc(C(=O)O)ccn3)ccc21 [Example 27, 2-(1-isopropyl-3-nitro-indol-5-yl) isonicotinic acid] |
| 7.62 | N#Cc1cc(-n2cc(C(=O)O)cn2)cc2cc(-c3ccccc3)[nH]c12 [Example 28, 1-(7-cyano-2-phenyl-1H-indol-5-yl)-pyrazole-4-carboxylic acid] |
| 8.30 | CC(C)c1cc2cc(-n3cc(C(=O)O)cn3)cc(C#N)c2[nH]1 [Example 29, 1-(7-cyano-2-isopropyl-1H-indol-5-yl)-pyrazole-4-carboxylic acid] |
| 7.77 | COCc1cc2cc(-n3cc(C(=O)O)cn3)cc(C#N)c2[nH]1 [Example 30, 1-(7-cyano-2-methoxymethyl-1H-indol-5-yl)-pyrazole-4-carboxylic acid] |
| 7.40 | N#Cc1cc(-n2cc(C(=O)O)cn2)cc2cc[nH]c12 [Example 31, 1-(7-cyano-1H-indol-5-yl)-pyrazole-4-carboxylic acid] |
